Where a name gives a salt, the structure may show the parent alone. Read-outs that look alike come from different tables or passages of the source.
How the values were obtained:
[1] = biological target: T1, cloned human μ opioid receptor (Homo sapiens, UniProt P35372); assay: [3H]diprenorphine binding to cloned human μ opioid receptor
T1 construct: expressed in transfected cells
Description: (§1) IC50 values were obtained by nonlinear analysis of the data using GraphPad Prism version 3.00 for Windows (GraphPad Software, San Diego). Ki values were obtained by Cheng-Prusoff corrections of IC50 values.
(§2) After dilution in buffer A and homogenization as before, membrane proteins (10-80 μg) in 250 μL were added to mixtures containing test compound and [^3H]diprenorphine (0.5 to 1.0 nM, 40,000 to 50,000 dpm) in 250 μL of buffer A in 96-well deep-well polystyrene titer plates (Beckman). After incubation at room temperature for one hour, the samples were filtered through GF/B filters that had been presoaked in a solution of 0.5% (w/v) polyethylenimine and 0.1% (w/v) bovine serum albumin in water. The filters were rinsed 4 times with 1 mL of cold 50 mM Tris HCl, pH 7.8 and radioactivity remaining on the filters determined by scintillation spectroscopy. Nonspecific binding was determined by the minimum values of the titration curves and was confirmed by separate assay wells containing 10 μM naloxone.
(§3) To determine the equilibrium dissociation constant for the inhibitors (Ki), radioligand bound (cpm) in the presence of various concentrations of test compounds was measured. […] The nonlinear regression fit was performed using the program Prism® (GraphPad Software, San Diego, Calif.). The Ki values were then determined from the […] values by the following equation, [formula] • where [ligand] is the concentration of radioligand; and • Kd is the equilibrium dissociation constant for the radioligand.

[2] = biological target: T2, cloned human δ opioid receptor (Homo sapiens, UniProt P41143); assay: [3H]diprenorphine binding to cloned human δ opioid receptor
T2 construct: expressed in transfected cells
T2 sequence (P41143 whole entry): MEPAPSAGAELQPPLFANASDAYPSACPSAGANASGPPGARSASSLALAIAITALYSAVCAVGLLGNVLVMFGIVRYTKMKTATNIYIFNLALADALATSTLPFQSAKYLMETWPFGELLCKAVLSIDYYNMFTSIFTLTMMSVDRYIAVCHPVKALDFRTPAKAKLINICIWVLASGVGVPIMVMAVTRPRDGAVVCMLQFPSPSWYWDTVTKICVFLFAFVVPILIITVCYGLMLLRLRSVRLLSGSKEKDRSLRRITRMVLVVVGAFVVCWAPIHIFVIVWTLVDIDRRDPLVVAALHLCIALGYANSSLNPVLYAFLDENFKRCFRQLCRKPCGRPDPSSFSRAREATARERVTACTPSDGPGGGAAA
Description: as §1, §2, §3

[3] = biological target: T3, CYP2D6 (Homo sapiens, UniProt P10635); assay: Inhibition of CYP2D6 catalyzed conversion of MAMC to HAMC; type: in vitro ADME
T3 construct: purchased BD Biosciences
T3 sequence (P10635 whole entry): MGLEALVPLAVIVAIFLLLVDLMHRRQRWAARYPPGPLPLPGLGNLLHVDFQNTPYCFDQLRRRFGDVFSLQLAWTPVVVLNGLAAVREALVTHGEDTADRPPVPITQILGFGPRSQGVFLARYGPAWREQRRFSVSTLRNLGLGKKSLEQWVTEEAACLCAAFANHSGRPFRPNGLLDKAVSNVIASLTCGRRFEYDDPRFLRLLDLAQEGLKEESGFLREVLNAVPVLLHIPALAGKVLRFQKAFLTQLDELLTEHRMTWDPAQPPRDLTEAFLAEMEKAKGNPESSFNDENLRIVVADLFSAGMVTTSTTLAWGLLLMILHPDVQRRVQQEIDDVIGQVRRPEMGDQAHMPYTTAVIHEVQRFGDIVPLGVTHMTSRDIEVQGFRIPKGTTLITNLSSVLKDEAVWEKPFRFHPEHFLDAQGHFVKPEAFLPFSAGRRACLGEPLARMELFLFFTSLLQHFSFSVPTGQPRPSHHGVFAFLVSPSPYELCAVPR
Description: Inhibition of CYP2D6 Catalyzed Conversion of MAMC to HAMC
Microsomes containing baculovirus expressed human recombinant CYP2D6 and MAMC were purchased from BD Biosciences. The method is a modification of the method provided by BD Biosciences.
• Assay Buffer=50 mM KPO4, 15 μg/mL NADP^+, 0.30 mg/mL glucose-6-phosphate, 0.20 mg/mL MgCl2, 0.96 U/mL glucose-6-phosphate dehydrogenase, 2.5 μM MAMC, pH 7.4. • Dilution Buffer=50 mM KPO4, pH 7.4 • Enzyme Buffer=150 mM KPO4, pH 7.4 • Stop Solution=80% acetonitrile, 20% 0.5 M Tris Base Procedure:
The assays were done in black 96 well plates (VWR Cat# 22221-572) and contained: 40 μL assay buffer, 10 μL test compound in dilution buffer and 50 μL of 10-15 pmol/mL CYP2D6 in enzyme buffer. Final concentrations: (100 mM KPO4, pH 7.4, 7.9 μM NADP^+, 0.36 mM glucose-6-phosphate, 0.4 mM MgCl2, 0.38 U/mL glucose-6-phosphate dehydrogenase, 1 μM MAMC (BD Biosciences), 0.5 pmol CYP2D6 (BD Biosciences))
For large experiments, assay buffer and test compound were added using the MiniTrak IV (Packard Biosciences), otherwise they were added using 25-250 μL and 5-100 μL 8 channel electronic pipettors (BioHit). CYP2D6 was added using 25-250 μL 8 channel electronic pipettor.
Titrations are done in either 96 well deep-well plates (Beckman) or 96 well microtiter plates (Costar), an initial dilution in dilution buffer is prepared from stock solutions in DMSO to start either 8 (1:6) or 12 (1:3.15) serial dilutions. For 1:6 dilutions, 50 μL for each dilution is transferred to 250 μL dilution buffer. For 1:3.15 dilutions, 50 μL for each dilution is transferred to 108 μL dilution buffer. Further details on concentrations will be provided in each experiment. Titrations are done using either 25-250 μL 8 channel electronic pipettor, 30-300 μL 12 channel manual pipettor (Spectrum), or the Multiprobe II. For screening, dilution plates are prepared in dilution buffer in 96 well microtiter plates from masterplates in 100% DMSO using the Multiprobe II or MiniTrak IV. After assay buffer and test compound has been added, the plates and the enzyme buffer are prewarmed at 37° C. for 15 minutes. After prewarming, CYP2D6 is added to then enzyme buffer and then added to the assay plate using 25-250 μL 8 channel electronic pipettor and the plates are incubated for 15 minutes at 37° C. After incubation, 50 μL stop solution is added using 25-250 μL 8 channel electronic pipettor. The plates are then counted on the Fusion (Packard Biosciences) for 4 sec/well using and excitation filter of 390 nm and an emission filter of 460 nm, intensity setting of 1, high detector sensitivity.
Non-specific relative fluorescent units (RFU) are determined in the presence of 10 μM quinidine in wells A1, B1, and C1 of each plate and total RFU determined in wells D1, E1, F1 in the absence of test compound. Specific HAMC production is the difference between total and nonspecific. For each compound, a percent inhibition of HAMC production is calculated by: % I=(1−(A/B))*100 • where A=cpm specifically bound for test compound • B=cpm specifically bound in the absence of test compound For experiments where the plates are registered in the biological database, % I is determined automatically by the biological database. Titrations
IC50's are calculated using nonlinear regression to a one-site model using GraphPad Prism or a VB algorithm fitting the data to that equation.

[4] = biological target: CYP2C9 (Homo sapiens, UniProt P11712); assay: Inhibition of CYP2C9 conversion of dibenzylfluorescein to fluorescein; type: in vitro ADME
Sequence of CYP2C9 (P11712 whole entry): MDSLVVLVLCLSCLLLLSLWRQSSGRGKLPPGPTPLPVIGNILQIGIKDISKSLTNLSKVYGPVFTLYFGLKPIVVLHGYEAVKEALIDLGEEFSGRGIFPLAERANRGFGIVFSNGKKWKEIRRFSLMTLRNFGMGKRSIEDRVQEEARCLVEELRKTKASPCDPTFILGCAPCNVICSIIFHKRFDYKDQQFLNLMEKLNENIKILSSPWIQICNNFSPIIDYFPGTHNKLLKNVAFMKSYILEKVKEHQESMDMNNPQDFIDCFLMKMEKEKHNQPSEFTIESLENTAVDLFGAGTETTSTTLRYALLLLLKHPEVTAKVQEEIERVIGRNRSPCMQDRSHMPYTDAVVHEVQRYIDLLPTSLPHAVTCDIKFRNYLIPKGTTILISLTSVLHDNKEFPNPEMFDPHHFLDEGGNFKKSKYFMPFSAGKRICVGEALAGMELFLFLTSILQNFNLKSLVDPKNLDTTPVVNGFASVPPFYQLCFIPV
Description: (§4) Inhibition of CYP2C9 and CYP3A4
(§5) These assays were carried out as described using CYP2C9 and CYP3A4 conversion of dibenzylfluorescein (DBF) to fluorescein (F).

[5] = biological target: CYP3A4 (Homo sapiens, UniProt P08684); assay: Inhibition of CYP3A4 conversion of dibenzylfluorescein to fluorescein; type: in vitro ADME
Sequence of CYP3A4 (P08684 whole entry): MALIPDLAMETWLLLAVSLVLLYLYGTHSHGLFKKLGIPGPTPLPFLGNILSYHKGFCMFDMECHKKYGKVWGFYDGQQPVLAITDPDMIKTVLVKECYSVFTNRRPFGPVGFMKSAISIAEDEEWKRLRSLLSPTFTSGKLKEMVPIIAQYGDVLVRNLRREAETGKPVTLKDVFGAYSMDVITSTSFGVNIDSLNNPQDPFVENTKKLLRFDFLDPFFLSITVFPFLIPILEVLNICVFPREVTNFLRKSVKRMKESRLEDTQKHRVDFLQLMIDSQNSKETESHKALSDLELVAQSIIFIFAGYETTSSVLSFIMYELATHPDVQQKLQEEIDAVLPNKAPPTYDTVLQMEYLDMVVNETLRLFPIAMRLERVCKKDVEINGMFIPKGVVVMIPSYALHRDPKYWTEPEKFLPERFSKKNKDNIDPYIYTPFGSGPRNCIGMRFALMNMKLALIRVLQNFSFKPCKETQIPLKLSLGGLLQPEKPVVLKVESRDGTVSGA
Description: as §4, §5

[6] = inhibition of [3H]diprenorphine binding, cloned human μ receptor, read-out: Ki(μ)
[7] = MAMC to HAMC conversion, read-out: IC50(CYP2D6)
[8] = DBF to fluorescein conversion, read-out: IC50(CYP2C9)
[9] = DBF to fluorescein conversion, read-out: IC50(CYP3A4)
[10] = inhibition of [3H]diprenorphine binding, cloned human δ receptor, read-out: Ki(δ)

T1 sequence (P35372 whole entry): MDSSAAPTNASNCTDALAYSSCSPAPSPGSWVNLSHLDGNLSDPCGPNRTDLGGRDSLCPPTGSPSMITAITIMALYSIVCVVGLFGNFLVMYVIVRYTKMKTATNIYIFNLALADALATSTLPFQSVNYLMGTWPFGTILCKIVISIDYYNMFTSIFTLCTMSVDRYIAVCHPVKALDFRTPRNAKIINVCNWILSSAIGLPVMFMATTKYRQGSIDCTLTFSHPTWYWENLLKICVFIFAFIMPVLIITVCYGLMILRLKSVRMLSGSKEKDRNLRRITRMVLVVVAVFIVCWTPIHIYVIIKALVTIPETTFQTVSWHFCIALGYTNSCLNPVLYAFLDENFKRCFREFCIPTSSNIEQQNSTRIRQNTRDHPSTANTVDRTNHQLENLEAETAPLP

Compound | Ki [1, 6] | Ki [2] | IC50 [3, 7] | IC50 [4, 8] | IC50 [5, 9] | Ki [1] | IC50 [3] | IC50 [4] | IC50 [5] | Ki [2, 10]
CN(C(=O)Cc1ccc(CNS(=O)(=O)Cc2ccccc2)cc1)[C@H](CN1CC[C@H](O)C1)c1ccccc1 [Example 21, N-{2-[3-(S)-hydroxy-pyrrolidin-1-yl]-1-(S)-phenyl-ethyl}-N-methyl-2-[4-(phenylmethanesulfonylamino-methyl)-phenyl]-acetamide hydrochloride] | 0.48 µM | 0.17 µM | 5.3 µM | > 10 µM | 5.6 µM | – | – | – | – | –
Cc1ccc(S(=O)(=O)NCc2ccc(CC(=O)N(C)[C@H](CN3CC[C@H](O)C3)c3ccccc3)cc2)cc1 [Example 20, N-{2-[3-(S)-hydroxy-pyrrolidin-1-yl]-1-(S)-phenyl-ethyl}-N-methyl-2-{4-[(toluene-4-sulfonylamino)-methyl]-phenyl}-acetamide hydrochloride] | 0.7 µM | 0.028 µM | 4.9 µM | > 10 µM | > 10 µM | – | – | – | – | –
CN(C(=O)Cc1ccc(CNS(C)(=O)=O)cc1)[C@H](CN1CCCC1)c1ccccc1 [Example 12, 2-[4-(methanesulfonylamino-methyl)-phenyl]-N-methyl-N-[1-(S)-phenyl-2-pyrrolidin-1-yl-ethyl]-acetamide] | – | > 3 µM | – | – | – | 0.47 µM | 12 µM | > 10 µM | > 10 µM | –
CN(C(=O)Cc1ccc(CNS(=O)(=O)c2ccccc2)cc1)[C@H](CN1CC[C@H](O)C1)c1ccccc1 [Example 18, 2-[4-(benzenesulfonylamino-methyl)-phenyl]-N-{2-[3-(S)-hydroxy-pyrrolidin-1-yl]-1-(S)-phenyl-ethyl}-N-methyl-acetamide hydrochloride] | 0.88 µM | – | 3.4 µM | 8 µM | 4.3 µM | – | – | – | – | 0.083 µM
CCCCS(=O)(=O)NCc1ccc(CC(=O)N(C)[C@H](CN2CC[C@H](O)C2)c2ccccc2)cc1 [Example 17, 2-{4-[(butane-1-sulfonylamino)-methyl]-phenyl}-N-{2-[3-(S)-hydroxy-pyrrolidin-1-yl]-1-(S)-phenyl-ethyl}-N-methyl-acetamide hydrochloride] | – | 0.17 µM | 7.2 µM | > 10 µM | 7 µM | 1 µM | – | – | – | –
CN(C(=O)Cc1ccc(CNS(=O)(=O)c2ccc(F)cc2)cc1)[C@H](CN1CC[C@H](O)C1)c1ccccc1 [Example 19, 2-{4-[(4-fluoro-benzenesulfonylamino)-methyl]-phenyl}-N-{2-[3-(S)-hydroxy-pyrrolidin-1-yl]-1-(S)-phenyl-ethyl}-N-methyl-acetamide hydrochloride] | – | 0.064 µM | 6.3 µM | > 10 µM | 2.9 µM | 1.1 µM | – | – | – | –
CN(C(=O)Cc1cccc(CNS(C)(=O)=O)c1)[C@H](CN1CCCC1)c1ccccc1 [Example 11, 2-[3-(methanesulfonylamino-methyl)-phenyl]-N-methyl-N-[1-(S)-phenyl-2-pyrrolidin-1-yl-ethyl]-acetamide hydrochloride] | 1.9 µM | – | 1.4 µM | – | > 10 µM | – | – | – | – | 1.5 µM
CN(C(=O)Cc1ccc(CNS(C)(=O)=O)cc1)[C@H](CN1CC[C@H](O)C1)c1ccccc1 [Example 13, N-{2-[3-(S)-hydroxy-pyrrolidin-1-yl]-1-(S)-phenyl-ethyl}-2-[4-(methanesulfonylamino-methyl)-phenyl]-N-methyl-acetamide hydrochloride] | – | 0.19 µM | 9.3 µM | > 10 µM | > 10 µM | 0.14 µM | – | – | – | –
CN(C(=O)Cc1ccc(NS(C)(=O)=O)cc1)[C@H](CN1CC[C@H](O)C1)c1ccccc1 [Example 25, N-{2-[3-(S)-hydroxy-pyrrolidin-1-yl]-1-(S)-phenyl-ethyl}-2-(4-methanesulfonylamino-phenyl)-N-methyl-acetamide hydrochloride] | – | 0.18 µM | 4.9 µM | – | > 10 µM | 0.1 µM | – | – | – | –

— US6992193B2, “Sulfonylamino phenylacetamide derivatives and methods of their use” (Adolor Corporation, priority 2003, dated 2006)
